≈ marks a conversion by molar mass, not a printed value. Like-named read-outs stand apart in the source and are kept apart here.
Experiments:
[1] = test system: Klebsiella pneumoniae; assay: Agar-plate diffusion assay, K. pneumoniae; format: cell-based; details: for Antibacterial Activity Gram-Negative K. pneumoniae Clear Inhibition Zone: at the MID, disk diameter 6 mm; for Antibacterial Activity Gram-Negative K. pneumoniae MID: minimum dose that induced an obvious inhibition zone (1–1.5 mm), 6 mm disk
Experimental: (§1) Staphylococcus aureus ATCC 6538 and Klebsiella pneumoniae were used for biological evaluation. Concentrations assayed ranged from 0.08 to 1.25 µg/disks. DMSO was used to dissolve the compounds, while vancomycin and oxacillin were used as positive controls for Staphylococcus aureus and gentamycin was used as a positive control for Klebsiella pneumoniae. The minimum inhibitory dose (MID, μg/disk) was defined as the minimum dose that induced an obvious inhibition zone (1–1.5 mm). The disk diameter was 6 mm.

[2] = test system: Staphylococcus aureus ATCC 6538; assay: Agar-plate diffusion assay, S. aureus; format: cell-based; details: for Antibacterial Activity Gram-Positive S. aureus Clear Inhibition Zone: at the MID, disk diameter 6 mm; for Antibacterial Activity Gram-Positive S. aureus MID: minimum dose that induced an obvious inhibition zone (1–1.5 mm), 6 mm disk
Experimental: as §1

[3] = In vitro cytotoxicity assay (MTT); format: cell-based, human; details: human
Experimental: (§2) In vitro cytotoxicity was determined against human embryonic kidney (HEK293T) cells. The assay was performed in 96-well treated tissue culture plates. Cells were seeded in the wells (5000 cells in 100 µL media containing RPMI1640, FBS, penicillin and streptomycin) and incubated for 24 h. Samples were then added and plates were again incubated for 48 h. MTT was then added and the plates were incubated for 4 h at 37 °C. Formazan crystals formed were dissolved in EtOH and absorbances were read at λ = 595 nm. The result was analyzed by using Prism 9 software (Graphpad, San Diego, CA, USA) to obtain IC50 values.

[4] = test system: human embryonic kidney (HEK293T) cells; assay: In vitro cytotoxicity assay (MTT); format: cell-based
Experimental: as §2

[5] = test system: Enterococcus faecium; parameters: method as in PMID 27399938; details: cited from earlier work
[6] = test system: Candida albicans; parameters: method as in PMID 27399938; details: cited from earlier work
[7] = test system: Escherichia coli; parameters: method as in PMID 27399938; details: cited from earlier work
[8] = test system: Pseudomonas aeruginosa; parameters: method as in PMID 27399938; details: cited from earlier work
[9] = test system: Staphylococcus aureus; parameters: method as in PMID 27399938; details: cited from earlier work
[10] = test system: Bsc-1 cells; parameters: method as in PMID 27399938; details: cited from earlier work
[11] = Homo sapiens, HEK-293T, HEK293T cells, methylation and acetylation products, read-out: IC50 against HEK293T
[12] = HEK293T cells, MTT, 48 h, read-out: Cytotoxicity HEK293T IC50

Row | Compound | Antibacterial Activity Gram-Negative K. pneumoniae Clear Inhibition Zone [1] [mm] | Antibacterial Activity Gram-Negative K. pneumoniae MID [1] [µg/Disk] | Antibacterial Activity Gram-Positive S. aureus Clear Inhibition Zone [2] [mm] | Antibacterial Activity Gram-Positive S. aureus MID [2] [µg/Disk] | IC50 [4, 11] [µg/mL] | also measured
1 | Oc1c(Br)cc(Br)cc1Oc1c(O)c(Br)c(Br)c(Br)c1Br [Compound 1, 2,3,4,5-tetrabromo-6-(3′, 5′-dibromo-2′-hydroxyphenoxy) phenol] | 7.00 ± 0.00 | 0.078 | 7.17 ± 0.24 | 0.078 | – | IC50 at 48 h ([3]; Cytotoxicity HEK293T IC50): 16.2 ± 1.17 µM
2 | COc1c(Br)c(Br)c(Br)c(Br)c1Oc1cc(Br)cc(Br)c1O [Compound 7] | – | – | – | – | > 10 | –
3 | COc1c(Br)cc(Br)cc1Oc1c(Br)c(Br)c(Br)c(Br)c1OC [Compound 8, 2,3,4,5-tetrabromo-6-(3′,5′-dibromo-2′-methoxyphenoxy) anisole] | – | – | – | – | > 10 | –
4 | COc1c(Br)cc(Br)cc1Oc1c(Br)cc(Br)c(Br)c1OC [Compound 9, 2,3,5-tribromo-6-(3′,5′-dibromo-2′-methoxyphenoxy) anisole] | – | – | – | – | > 10 | –
5 | CC(=O)Oc1c(Br)c(Br)c(Br)c(Br)c1Oc1cc(Br)cc(Br)c1O [Compound 10, 2,3,4,5-tetrabromo-6-(3′,5′-dibromo-2′-hydroxyphenoxy) phenyl acetate] | – | – | – | – | > 10 | –
6 | CC(=O)Oc1c(Br)cc(Br)cc1Oc1c(Br)c(Br)c(Br)c(Br)c1OC(C)=O [Compound 11, 2,3,4,5-tetrabromo-6-(3′,5′-dibromo-2′-acetoxyphenoxy) phenyl acetate] | – | – | – | – | > 10 | –
7 | CC(=O)Oc1c(Br)c(Br)cc(Br)c1Oc1cc(Br)cc(Br)c1O [Compound 12, 2,3,5-tribromo-6-(3′, 5′-dibromo-2′-hydroxyphenoxy) phenyl acetate] | – | – | – | – | > 10 | –
8 | CC(=O)Oc1c(Br)cc(Br)cc1Oc1c(Br)cc(Br)c(Br)c1OC(C)=O [Compound 13, 2,3,5-tribromo-6-(3′,5′-dibromo-2′-acetoxyphenoxy) phenyl acetate] | – | – | – | – | > 10 | –
9 | Oc1cc(Br)cc(Br)c1Oc1cc(Br)cc(Br)c1O [Compound 16, 3,5-dibromo-6-(3′, 5′-dibromo-2′-hydroxyphenoxy) phenol] | 7.50 ± 0.00 | 0.078 | 7.00 ± 0.00 | 0.078 | – | MIC Enterococcus faecium [5]: 1.6 to 3.1 µg/mL; MIC Candida albicans [6]: > 50 µg/mL; MIC Escherichia coli [7]: 50 µg/mL (≈ 96.6 µM); MIC Pseudomonas aeruginosa [8]: > 50 µg/mL; MIC Staphylococcus aureus [9]: 1.25 to 1.6 µg/mL; IC50 against Bsc-1 cells [10]: > 50 µg/mL; IC50 at 48 h ([3]; Cytotoxicity HEK293T IC50): 8.65 ± 1.11 µM; IC50 ([4]; human, 48 h): 8.11 µM
10 | Oc1ccccc1Oc1ccccc1O [Compound 30, 2, 2′-oxydiphenol, reference compound] | – | – | – | – | – | IC50 at 48 h [3, 12]: > 198 µM
11 | COc1cccc2c1C(=O)c1c(O)c3c(c(O)c1C2=O)C[C@@](O)(C(=O)CO)C[C@@H]3O[C@H]1C[C@H](N)[C@H](O)[C@H](C)O1 [Doxorubicin, reference compound] | – | – | – | – | – | IC50 at 48 h [3, 12]: 0.22 ± 0.09 µM
12 | Cc1onc(-c2ccccc2)c1C(=O)N[C@@H]1C(=O)N2[C@@H]1SC(C)(C)[C@@H]2C(=O)O [Oxacillin] | 7.33 ± 0.24 | 0.078 | 11.33 ± 0.24 | < 0.078 | – | –
13 | CN[C@H](CC(C)C)C(=O)N[C@H]1C(=O)N[C@@H](CC(N)=O)C(=O)N[C@H]2C(=O)N[C@H]3C(=O)N[C@H](C(=O)N[C@H](C(=O)O)c4cc(O)cc(O)c4-c4cc3ccc4O)[C@H](O)c3ccc(c(Cl)c3)Oc3cc2cc(c3O[C@@H]2O[C@H](CO)[C@@H](O)[C@H](O)[C@H]2O[C@H]2C[C@](C)(N)[C@H](O)[C@H](C)O2)Oc2ccc(cc2Cl)[C@H]1O [Vancomycin] | 7.33 ± 0.24 | 0.078 | 7.00 ± 0.00 | 0.078 | – | –
14 | Gentamycin | 7.33 ± 0.47 | 0.078 | 7.67 ± 0.47 | 0.078 | – | –

— article PMC8588277, “Oxy-Polybrominated Diphenyl Ethers from the Indonesian Marine Sponge, Lamellodysidea herbacea: X-ray, SAR, and Computational Studies” (Molecules, 2021)
